Results taken from US12662451B2, “Chemical compounds and uses thereof” (GLAXOSMITHKLINE INTELLECTUAL PROPERTY (NO.4) LIMITED, priority 2023, dated 2026).
Like-named read-outs stand apart in the source and are kept apart here.

Assays:
[1] = biological target: T1, recombinant full-length WRN protein (1-1432) (Homo sapiens, UniProt Q14191); assay: WRN unwinding activity, fluorogenic 384-well assay (Example A); format: biochemical; details: WRN unwinding activity, 4 hr; Table 2; read-out: 4 hr UNW pIC50 (converted)
T1 construct: recombinant full-length WRN protein (1-1432)
T1 sequence (Q14191 whole entry): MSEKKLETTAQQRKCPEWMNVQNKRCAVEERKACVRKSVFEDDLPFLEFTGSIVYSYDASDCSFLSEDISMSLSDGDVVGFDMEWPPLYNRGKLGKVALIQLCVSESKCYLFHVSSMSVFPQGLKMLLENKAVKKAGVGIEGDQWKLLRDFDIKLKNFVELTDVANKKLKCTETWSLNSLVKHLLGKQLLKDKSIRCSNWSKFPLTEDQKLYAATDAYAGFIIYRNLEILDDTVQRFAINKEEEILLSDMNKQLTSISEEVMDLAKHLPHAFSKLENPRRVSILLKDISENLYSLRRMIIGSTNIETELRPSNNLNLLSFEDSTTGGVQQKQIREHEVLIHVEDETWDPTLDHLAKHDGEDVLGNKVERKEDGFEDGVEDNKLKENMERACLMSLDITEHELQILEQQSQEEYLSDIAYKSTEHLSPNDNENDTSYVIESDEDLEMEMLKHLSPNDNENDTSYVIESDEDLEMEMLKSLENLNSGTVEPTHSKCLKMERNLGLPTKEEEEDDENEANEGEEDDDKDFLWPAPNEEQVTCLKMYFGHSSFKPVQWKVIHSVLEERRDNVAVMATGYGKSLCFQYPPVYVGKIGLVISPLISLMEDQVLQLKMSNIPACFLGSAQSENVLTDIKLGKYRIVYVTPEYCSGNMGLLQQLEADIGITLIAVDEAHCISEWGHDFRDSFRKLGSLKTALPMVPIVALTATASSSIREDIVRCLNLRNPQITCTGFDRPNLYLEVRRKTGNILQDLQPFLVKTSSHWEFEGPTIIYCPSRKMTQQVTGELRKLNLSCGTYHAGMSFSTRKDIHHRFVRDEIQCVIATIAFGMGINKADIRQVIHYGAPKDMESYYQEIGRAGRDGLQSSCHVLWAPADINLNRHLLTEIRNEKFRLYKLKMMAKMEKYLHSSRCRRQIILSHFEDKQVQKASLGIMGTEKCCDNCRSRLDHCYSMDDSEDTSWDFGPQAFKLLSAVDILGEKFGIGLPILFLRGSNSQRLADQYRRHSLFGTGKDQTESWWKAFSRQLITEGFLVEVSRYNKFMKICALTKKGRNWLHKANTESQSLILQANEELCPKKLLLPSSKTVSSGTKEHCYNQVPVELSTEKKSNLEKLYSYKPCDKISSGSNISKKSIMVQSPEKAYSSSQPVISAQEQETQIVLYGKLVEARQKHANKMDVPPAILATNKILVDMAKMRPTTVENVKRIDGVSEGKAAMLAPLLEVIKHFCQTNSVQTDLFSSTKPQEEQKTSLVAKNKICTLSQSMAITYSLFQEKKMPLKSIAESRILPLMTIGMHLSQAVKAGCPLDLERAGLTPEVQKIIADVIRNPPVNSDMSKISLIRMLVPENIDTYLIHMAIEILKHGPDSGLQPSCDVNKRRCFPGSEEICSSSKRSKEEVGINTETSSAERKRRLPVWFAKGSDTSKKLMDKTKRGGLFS
In short: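 Read-out is end-point unwinding of a fluorophore/quencher duplex (ex 525, em 598 nm) after 60 min with 200 μM ATP and 12 nM DNA (2× stocks), EDTA stop. Compound first sat 4 h with 200 pM WRN (2× stock) in pH 8.0 Tris buffer; four-parameter fit gives pIC50.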

[2] = tested on: SW48 human colorectal cancer cells; assay: Calculated free drug potency in SW48 cell assay, corrected with media free fraction (Example C); format: cell-based; details: Homo sapiens, SW48, SW48 pCC50 corrected with measured free fraction in cell assay media
In short: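 Free drug potency derives from correcting SW48 assay concentrations with the unbound fraction in medium. That fraction came from RED against pH 7.4 PBS, 1 μM nominal compound, 4 h at 37 °C, quantified by LC-MS/MS peak area ratios at T=240 versus T=0 min.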

[3] = tested on: SW48 human colorectal cancer cells (MSI-H cancer cells); assay: SW48 cell viability, CellTiter-Glo, 120 hours (Example B); details: Homo sapiens
[4] = Cell culture media unbound percentage and stability by rapid equilibrium dialysis (Example C); format: in vitro ADME; details: bovine, cell assay medium (RPMI-1640 with 10% fetal bovine serum), pH 7.4, rapid equilibrium dialysis, 4 hours at 37° C., read-out: Cell Culture Media Binding (% unbound)
In short: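 Percent unbound in cell assay medium came from the LC-MS/MS receiver:donor peak area ratio, with stability taken as the 240 min over 0 min ratio. Set-up: 1 μM nominal compound in medium dialysed against pH 7.4 PBS (100 mM phosphate, 150 mM NaCl), 4 h, 37° C, shaken, in triplicate.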

[5] = SW48, 120 h, read-out: SW48 pCC50, SW48 cell viability, 120 hours incubation (converted), Table 2
[6] = SW48, read-out: SW48 pCC50, measured potency from Example B, as repeated in Table 3 (converted)

SMILES: Cc1nc2cc(S(=O)(=O)N(C)c3ccc([C@H]4CCC[C@@H](C(=O)Nc5ccc(C(F)(F)F)cc5F)[C@@H]4C(=O)O)cc3)cc(Cl)c2n1C [Example 129, (1R,2S,6R)-2-(4-((7-chloro-N,1,2-trimethyl-1H-benzo[d]imidazole)-5-sulfonamido)phenyl)-6-((2-fluoro-4-(trifluoromethyl)phenyl)carbamoyl)cyclohexane-1-carboxylic acid]
- IC50 [1]: 20 nM
- CC50 [2]: 9.12 nM
- CC50 [3, 5]: 631 nM
- CC50 [3, 6]: 631 nM
- fraction unbound at 4 h, 1 µM [4]: 0.0143

SMILES: CN1CCN(C)c2cc(S(=O)(=O)N(C)c3ccc([C@H]4CCC[C@@H](C(=O)Nc5ccc(C(F)(F)F)cc5F)[C@@H]4C(=O)O)cc3)ccc21 [Example 123, (1R,2R,6S)-2-((2-fluoro-4-(trifluoromethyl)phenyl)carbamoyl)-6-(4-((N,1,4-trimethyl-1,2,3,4-tetrahydroquinoxaline)-6-sulfonamido)phenyl)cyclohexane-1-carboxylic acid]
- IC50 [1]: 3.98 nM
- CC50 [2]: 3.55 nM
- CC50 [3, 5]: 501 nM
- CC50 [3, 6]: 501 nM
- fraction unbound at 4 h, 1 µM [4]: 0.0071

SMILES: Cc1nc2cc(S(=O)(=O)N(C)c3ccc([C@@H]4CC(F)(F)C[C@H](C(=O)Nc5ccc(C(F)(F)F)cc5F)[C@H]4C(=O)O)cc3)ccc2n1C (single isomer, unassigned) [Example 364]
- IC50 [1]: 631 nM
- CC50 [2]: 1120 nM
- CC50 [3, 5]: 10000 nM
- fraction unbound at 4 h, 1 µM [4]: 0.113

SMILES: Cc1nc2cc(S(=O)(=O)N(C)c3ccc([C@H]4C[C@@H](N5CCCC(F)(F)C5)C[C@@H](C(=O)Nc5ccc(C(F)(F)F)cc5F)[C@@H]4C(=O)O)cc3)ccc2n1C (relative stereo) [Example 353, rel-(1R,2R,4R,6S)-4-(3,3-difluoropiperidin-1-yl)-2-((2-fluoro-4-(trifluoromethyl)phenyl)carbamoyl)-6-(4-((N,1,2-trimethyl-1H-benzo[d]imidazole)-5-sulfonamido)phenyl)cyclohexane-1-carboxylic acid]
- IC50 [1]: 1.58 nM
- CC50 [2]: 4.47 nM
- CC50 [3, 5]: 39.8 nM
- CC50 [3, 6]: 39.8 nM
- fraction unbound at 4 h, 1 µM [4]: 0.113

SMILES: Cc1nc2cc(S(=O)(=O)N(C)c3ccc([C@H]4CCC[C@@H](C(=O)N[C@H]5CC[C@H](C(F)(F)F)CC5)[C@@H]4C(=O)O)cc3)ccc2n1C [Example 177, (1R,2R,6S)-2-(((1r,4R)-4-(trifluoromethyl)cyclohexyl)carbamoyl)-6-(4-((N,1,2-trimethyl-1H-benzo[d]imidazole)-5-sulfonamido)phenyl)cyclohexane-1-carboxylic acid]
- IC50 [1]: 1.58 nM
- CC50 [2]: 372 nM
- CC50 [3, 5]: 1580 nM
- CC50 [3, 6]: 1580 nM
- fraction unbound at 4 h, 1 µM [4]: 0.237

SMILES: Cc1nc2cc(S(=O)(=O)N(C)c3ccc([C@H]4C[C@@H](NCC(F)(F)F)C[C@@H](C(=O)Nc5ccc(C(F)(F)F)cc5F)[C@@H]4C(=O)O)cc3)ccc2n1C (stereo in doubt) [Example 334, rel-(1R,2R,4R,6S)-2-((2-fluoro-4-(trifluoromethyl)phenyl)carbamoyl)-4-((2,2,2-trifluoroethyl)amino)-6-(4-((N,1,2-trimethyl-1H-benzo[d]imidazole)-5-sulfonamido)phenyl)cyclohexane-1-carboxylic acid]
- IC50 [1]: 1.58 nM
- CC50 [2]: 45.7 nM
- CC50 [3, 5]: 251 nM
- CC50 [3, 6]: 251 nM
- fraction unbound at 4 h, 1 µM [4]: 0.183

SMILES: Cc1nc2cc(S(=O)(=O)N(C)c3ccc([C@H]4C[C@@H](OC[C@@H]5CCOC5)C[C@@H](C(=O)Nc5ccc(C(F)(F)F)cc5F)[C@@H]4C(=O)O)cc3)ccc2n1C (stereo in doubt) [Example 320, (1R*,2R*,4R*,6S*)-2-((2-fluoro-4-(trifluoromethyl)phenyl)carbamoyl)-4-(((R)-tetrahydrofuran-3-yl)methoxy)-6-(4-((N,1,2-trimethyl-1H-benzo[d]imidazole)-5-sulfonamido)phenyl)cyclohexane-1-carboxylic acid]
- IC50 [1]: 3.98 nM
- CC50 [2]: 8.91 nM
- CC50 [3, 5]: 79.4 nM
- CC50 [3, 6]: 79.4 nM
- fraction unbound at 4 h, 1 µM [4]: 0.112

SMILES: CCO[C@@H]1C[C@H](c2ccc(N(C)S(=O)(=O)c3ccc4c(c3)nc(CO)n4C)cc2)[C@@H](C(=O)O)[C@H](C(=O)Nc2ccc(C(F)(F)F)cc2F)C1 [Example 373, (1R,2R,4R,6S)-4-ethoxy-2-((2-fluoro-4-(trifluoromethyl)phenyl)carbamoyl)-6-(4-((2-(hydroxymethyl)-N,1-dimethyl-1H-benzo[d]imidazole)-5-sulfonamido)phenyl)cyclohexane-1-carboxylic acid]
- IC50 [1]: 1.58 nM
- CC50 [2]: 17.4 nM
- CC50 [3, 5]: 100 nM
- CC50 [3, 6]: 100 nM
- fraction unbound at 4 h, 1 µM [4]: 0.175

SMILES: CCCO[C@@H]1C[C@H](c2ccc(N(C)S(=O)(=O)c3ccc4c(c3)nc(C)n4C)cc2)[C@@H](C(=O)O)[C@H](C(=O)Nc2ccc(C(F)(F)F)cc2F)C1 (stereo in doubt) [Example 151, rel-(1R,2R,4R,6S)-2-((2-fluoro-4-(trifluoromethyl)phenyl)carbamoyl)-4-propoxy-6-(4-((N,1,2-trimethyl-1H-benzo[d]imidazole)-5-sulfonamido)phenyl)cyclohexane-1-carboxylic acid]
- IC50 [1]: 3.16 nM
- CC50 [2]: 11.7 nM
- CC50 [3, 5]: 501 nM
- CC50 [3, 6]: 501 nM
- fraction unbound at 4 h, 1 µM [4]: 0.0233

SMILES: Cc1nc2cc(S(=O)(=O)N(C)c3ccc([C@H]4CCC[C@@H](C(=O)Nc5ccc(C(F)(F)F)cc5F)[C@@H]4C(=O)O)cc3F)ccc2n1C (single isomer, unassigned) [Example 368]
- IC50 [1]: 5.01 nM
- CC50 [2]: 102 nM
- CC50 [3, 5]: 794 nM
- CC50 [3, 6]: 794 nM
- fraction unbound at 4 h, 1 µM [4]: 0.128

SMILES: COCCO[C@@H]1C[C@H](C(=O)Nc2ccc(C(F)(F)F)cc2F)[C@@H](C(=O)O)[C@H](c2ccc(N(C)S(=O)(=O)c3ccc4c(c3)nc(C)n4C)cc2)C1 (stereo in doubt) [Example 315, rel-(1R,2R,4R,6S)-2-((2-fluoro-4-(trifluoromethyl)phenyl)carbamoyl)-4-(2-methoxyethoxy)-6-(4-((N,1,2-trimethyl-1H-benzo[d]imidazole)-5-sulfonamido)phenyl)cyclohexane-1-carboxylic acid]
- IC50 [1]: 63.1 nM
- CC50 [2]: 3800 nM
- CC50 [3, 5]: 10000 nM
- fraction unbound at 4 h, 1 µM [4]: 0.384

SMILES: Cc1nc2cc(S(=O)(=O)N(C)c3ccc([C@H]4CCC[C@@H](C(=O)Nc5ccc(C(F)(F)F)cc5F)[C@@H]4C(=O)O)nc3)ccc2n1C (relative stereo) [Example 161, rel-(1R,2R,6S)-2-((2-fluoro-4-(trifluoromethyl)phenyl)carbamoyl)-6-(5-((N,1,2-trimethyl-1H-benzo[d]imidazole)-5-sulfonamido)pyridin-2-yl)cyclohexane-1-carboxylic acid]
- IC50 [1]: 2.51 nM
- CC50 [2]: 38 nM
- CC50 [3, 5]: 794 nM
- CC50 [3, 6]: 794 nM
- fraction unbound at 4 h, 1 µM [4]: 0.0481

SMILES: CN(c1ccc([C@H]2CCC[C@@H](C(=O)Nc3ccc(C(F)(F)F)cc3F)[C@@H]2C(=O)O)cc1)S(=O)(=O)c1ccc2c(c1)nc(Cl)n2C [Example 365, (1R,2S,6R)-2-(4-((2-chloro-N,1-dimethyl-1H-benzo[d]imidazole)-5-sulfonamido)phenyl)-6-((2-fluoro-4-(trifluoromethyl)phenyl)carbamoyl)cyclohexane-1-carboxylic acid]
- IC50 [1]: 3.16 nM
- CC50 [2]: 26.3 nM
- CC50 [3, 5]: 398 nM
- CC50 [3, 6]: 398 nM
- fraction unbound at 4 h, 1 µM [4]: 0.0658

SMILES: CN(c1ccc([C@H]2CCC[C@@H](C(=O)Nc3ccc(C(F)(F)F)cc3F)[C@@H]2C(=O)O)cc1)S(C)(=O)=O [Example 285, (1R,2R,6S)-2-((2-fluoro-4-(trifluoromethyl)phenyl)carbamoyl)-6-(4-(N-methylmethylsulfonamido)phenyl) cyclohexane-1-carboxylic acid]
- IC50 [1]: 31.6 nM
- CC50 [2]: 3470 nM
- CC50 [3, 5]: 6310 nM
- CC50 [3, 6]: 6310 nM
- fraction unbound at 4 h, 1 µM [4]: 0.549

SMILES: Cc1nc2cc(S(=O)(=O)N(C)c3ccc([C@H]4C[C@@H](OC[C@H]5COCCO5)C[C@@H](C(=O)Nc5ccc(C(F)(F)F)cc5F)[C@@H]4C(=O)O)cc3)ccc2n1C (relative stereo) [Example 327, (1R*,2R*,4R*,6S*)-4-(((R)-1,4-dioxan-2-yl)methoxy)-2-((2-fluoro-4-(trifluoromethyl)phenyl)carbamoyl)-6-(4-((N,1,2-trimethyl-1H-benzo[d]imidazole)-5-sulfonamido)phenyl)cyclohexane-1-carboxylic acid]
- IC50 [1]: 2.51 nM
- CC50 [2]: 58.9 nM
- CC50 [3, 5]: 200 nM
- CC50 [3, 6]: 200 nM
- fraction unbound at 4 h, 1 µM [4]: 0.296
